Data taken from PubChem BioAssay (NCI).
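How tested: cells in 96-well plates exposed to compound for 48 hours at five concentrations. TGI denotes the concentration required for complete inhibition of growth.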

Legend:
Test in all cases: DTP human tumour cell line panel, 48 h
[1] = test system: M19-MEL melanoma
[2] = test system: SW-620 colon
[3] = test system: SF-295 CNS
[4] = test system: SK-MEL-28 melanoma
[5] = test system: HOP-62 NSCLC
[6] = test system: LOX IMVI melanoma
[7] = test system: NCI-H460 lung
[8] = test system: SNB-75 CNS
[9] = test system: UACC-257 melanoma
[10] = test system: A549 NSCLC
[11] = test system: SK-MEL-2 melanoma
[12] = test system: RPMI-8226 leukemia
[13] = test system: XF 498 CNS
[14] = test system: LXFL 529 NSCLC
[15] = test system: EKVX NSCLC
[16] = test system: KM20L2 colon
[17] = test system: MALME-3M melanoma
[18] = test system: CCRF-CEM leukemia
[19] = test system: 786-0 renal
[20] = test system: MOLT-4 leukemia
[21] = test system: ACHN renal
[22] = test system: SK-MEL-5 melanoma
[23] = test system: HOP-92 NSCLC
[24] = test system: OVCAR-8 ovarian
[25] = test system: SNB-19 CNS
[26] = test system: NCI-H226 lung
[27] = test system: UACC-62 melanoma
[28] = test system: OVCAR-3 ovarian
[29] = test system: COLO 205 colon
[30] = test system: UO-31 renal
[31] = test system: SF-268 CNS
[32] = test system: DLD-1 colon
[33] = test system: DMS 114 small cell lung
[34] = test system: SR leukemia
[35] = test system: HCT-116 colon
[36] = test system: SN12C renal
[37] = test system: SNB-78 CNS
[38] = test system: NCI-H23 lung
[39] = test system: TK-10 renal
[40] = test system: K-562 leukemia
[41] = test system: SK-OV-3 ovarian
[42] = test system: U251 CNS
[43] = test system: IGROV1 ovarian
[44] = test system: M14 melanoma
[45] = test system: DMS 273 small cell lung
[46] = test system: HT29 colon
[47] = test system: KM12 colon
[48] = test system: HL-60(TB) leukemia
[49] = test system: NCI-H522 lung
[50] = test system: HCC-2998 colon
[51] = test system: OVCAR-4 ovarian
[52] = test system: RXF 393 renal
[53] = test system: HCT-15 colon
[54] = test system: OVCAR-5 ovarian
[55] = test system: SF-539 CNS
[56] = test system: CAKI-1 renal
[57] = test system: A498 renal

Measured: TGI

O=C(CCN1CCCC1)CC(c1ccccc1)c1c(O)c2ccccc2oc1=O (stereo not given)
94.8 µM: [23]
not listed: [54] | [55] | [56] | [57]
> 100 µM: all other assays above

CC(=O)c1c(P(=O)(OC(C)C)OC(C)C)nn(-c2ccc([N+](=O)[O-])cc2)c1C
not listed: [6] | [8] | [19] | [26] | [52]
> 100 µM: all other assays above
